Measurements: patent publication US20110245105A1, “Methods and Kits for Direct Detection and Susceptibility Profiling of Beta-Lactam Resistant Bacteria” (YISSUM RESEARCH DEVELOPMENT COMPANY OF THE HEBREW …, priority 2008, published 2011)

How the values were obtained:
Prot. mirabilis [1] = assay: conventional lab procedures [CLP], resistance of bacterial isolates; format: cell-based; conditions: 1 sample (r18)
From the text: (§1) The same specimens were examined using conventional lab procedures [CLP] that determined the identity of the bacterial isolates and their resistance to the above beta-lactams.

Proteus mirabilis = assay: modular antibiotic resistance detection kit on urine sample pellets; format: cell-based
Method: (§2) A modular antibiotic resistance detection kit offers more flexibility in testing different resistance profiles. In the modular detection kit exemplified here, the ART strip is replaced by filter paper segments glued to a slide, each segment impregnated with a single antibiotic.
(§3) Specifically, pathogen samples were tested using filter papers impregnated with the following beta-lactam antibiotics: ampicillin [Amp], augmentin (a combination of amoxicillin and clavulanic acid) [AMC], clavulanic acid (Reduced Resistance test) [RR], ceftazidime [Caz] and either imipenem or meropenem [CPM]. The impregnation details of the fragments were as in the previous Examples.
(§4) Filter paper (Whatman no. 3] strips impregnated with Assay Reagent solution were used as “indicator strips”. An indicator strip was attached to the plain top slide as shown in FIG. 2. Aliquots of the pellets of the urine samples tested were placed on each of the segments. The test was started by placing the activated indicator-strip-slide, on the modular antibiotic slide. The scan results obtained after 5-10 min at 38° C. are illustrated schematically in FIG. 2 where all segments, except for the negative (no antibiotic) control, show decolorization indicating resistance to each antibiotic in that array.
(§5) Samples resistant to ceftazidime but affected by clavulanic acid were assumed to contain extended spectrum beta lactamases (ESBLs). The ‘Confirmed’ detections column summarizes the number of CLP-validated results out of the total findings recorded.

E. coli [2] = assay: as above; format: cell-based
Method: as §2, §3, §4, §5

Citrobacter freundii = assay: as above; format: cell-based; on resistance found with modular kit: key: R = resistant; S = sensitive
Method: as §2, §3, §4, §5

K. pneumoniae [3] = assay: as above; format: cell-based
Method: as §2, §3, §4, §5

Morg. morganii = assay: ART strip test on urine sample pellets; format: cell-based
Method: (§6) Filter paper (Whatman no. 3) strips impregnated with 50 mM potassium iodide and 10 mM iodine in 0.75% aqueous starch solution were divided into 6 test areas. Appropriate antibiotic substrates were prepared at a final concentration of 20 mg/mL. Each test area was impregnated with 30 μL of the appropriate solution. The strips were then dried in a lyophilizer and stored with a desiccant at 4° C.
(§7) One mL urine samples were spun 2 minutes at 3000 RPM in room temperature. Supernatants were removed and aliquots of the resulting pellets were streaked on standard slides.
(§8) The product of the enzymatic degradation of a beta-lactam antibiotic removes the iodine from the ART strip and causes local decolorization in that strip. Typically, a detection kit consists of two slides, as illustrated in FIG. 2. The bottom slide is streaked with the sample to be tested. The top slide (lid) carries the ART strip which is activated when each test area on the strip receives 25 μL of the activator solution consisting of 40 mg gelatin in 100 mL phosphate buffer pH 6.5. The test starts when the top slide carrying the freshly activated ART strip contacts the bottom slide carrying the sample. It may be carried out at ambient temperatures but will be accelerated by warming-up to 41° C. […] Result is confirmed if no decolorization took place in the absence of the bacteria (the background of that test area) or in the absence of the antibiotic (as in Test Area 2 in FIG. 1).
(§9) One mL urine sample pellets were collected as described in Example 1 and each streaked on a slide. The strip of the invention (termed ART for Antibiotics Resistance Test) was used to test for beta-lactamase and its ability to degrade Ceftazidime [Caz], Ceftriaxone [Cro], Cefuroxime [Cxm] and Ampicillin [Amp]. The strip, containing iodine and starch and divided to areas containing each of the abovementioned antibiotics, and attached to a plain slide, was activated as shown above, and placed on the streaked slide. After 5-15 minutes at 33° C.-38° C. the slide was scanned and recorded.

K. oxytoca [4] = assay: ART strip test on urine sample pellets; format: cell-based
Method: as §6, §7, §8, §9

Acinetobacter sp. = assay: ART strip test on urine sample pellets; format: cell-based; conditions: 1 sample (r29)
Method: as §6, §7, §8, §9

Citr. koseri = assay: ART strip test on urine sample pellets; format: cell-based; conditions: 2 samples (r25)
Method: as §6, §7, §8, §9

Prot. mirabilis [5] = assay: ART strip test on urine sample pellets; format: cell-based
Method: as §6, §7, §8, §9

E. faecalis = assay: ART strip test on urine sample pellets; format: cell-based; conditions: 4 samples (r27)
Method: as §6, §7, §8, §9

Str. agalactiae = assay: ART strip test on urine sample pellets; format: cell-based; conditions: 3 samples (r34)
Method: as §6, §7, §8, §9

K. pneumoniae [6] = assay: ART strip test on urine sample pellets; format: cell-based
Method: as §6, §7, §8, §9

Staphylococcus sp. = assay: ART strip test on urine sample pellets; format: cell-based
Method: as §6, §7, §8, §9

E. coli [7] = assay: ART strip (Antibiotics Resistance Test), iodometric detection of beta-lactam hydrolysis by un-cultured urine sample pellets; format: cell-based
Method: as §6, §7, §8, §9

K. oxytoca [8] = assay: conventional lab procedures [CLP], resistance of bacterial isolates; format: cell-based; conditions: 1 sample (r15)
From the text: as §1

K. pneumoniae [9] = assay: as above; format: cell-based; conditions: 1 sample (r12)
From the text: as §1

carbapenemase = assay: detection of carbapenemase activity in clinical urine samples; format: biochemical; conditions: urine pellet streak; 12 min at room temperature; 5.0-30 mg/mL substrate
Method: Activated ART strip impregnated with 30 μL of an aqueous solution of 30, […], 20, 15, 10 and 5.0 mg/mL imipenem (Ipm) or ertapenem (Etp) in positions 1, 2, 3, 4 and 5 on the strip, respectively, was placed in contact with a slide streaked with a urine pellet sample (Ipm+Sam. or Etp+Sam.), or an unstreaked slide (Ipm Cont. or Etp Cont.), […] reaction to appear. Abbreviations: Cont. (control), Etp. (ertapenem), Ipm. (imipenem), sam. (sample).
The product of the enzymatic degradation of a beta-lactam antibiotic removes the iodine from the ART strip and causes local decolorization in that strip. Typically, a detection kit consists of two slides, as illustrated in FIG. 2. The bottom slide is streaked with the sample to be tested. The top slide (lid) carries the ART strip which is activated when each test area on the strip receives 25 μL of the activator solution consisting of 40 mg gelatin in 100 mL phosphate buffer pH 6.5. The test starts when the top slide carrying the freshly activated ART strip contacts the bottom slide carrying the sample. […]
Urine samples were concentrated by a two minute centrifugation step at 3000 RPM and the resulting pellet was streaked on standard slides. […] As shown by the figure, the carbapenemase activity is easily detected using this method, even in samples containing low concentrations of antibiotic substrates.

[10] = test system: carbapenem-resistant Enterobacteriaceae; assay: modular kit for detection of CRE in urine sample; format: cell-based; conditions: CRE-containing urine sample; as part of augmentin
Method: The kit constructed as a twin-slide [as illustrated by FIG. 1] carries an “OCTET” strip impregnated [as in Example 1] with an array of eight beta-lactam antibiotics and 1 non-beta-lactam control [S].
To illustrate the life-saving potential of the proposed technology which eliminates delays in diagnosis of carbapenem-resistant members of the Enterobacteriaceae family (CRE), a CRE sample was analyzed using the invention's modular kit, containing ampicillin, ceftazidime, augmentin, cefotaxime, imipenem, cefuroxime, meropenem and ceftriaxone as beta-lactamase substrates and a non-beta-lactam antibiotic, served as a negative control.
Filter paper segments were glued to a slide, each segment impregnated with a single antibiotic of the abovementioned antibiotics and streaked with carbapenem-resistant Enterobacteriaceae-containing urine sample pellets, prepared as described in Examples 1 to 3. The slide was contacted with indicator strips attached to a slide.

[11] = 28 samples (r6), 5-15 minutes at 33° C.-38° C.

| Structure (SMILES) | resistance profile predicted by ART (Morg. morganii; 1 sample (r22)) | resistance profile predicted by ART (Morg. morganii; 1 sample (r23)) | resistance profile predicted by ART (K. oxytoca [4]; 1 sample (r15)) | resistance profile predicted by ART (K. oxytoca [4]; 3 samples (r14)) | resistance profile predicted by ART (Acinetobacter sp.) | resistance profile predicted by ART (Citr. koseri) | resistance profile predicted by ART (Prot. mirabilis [5]; 1 sample (r18)) | resistance profile predicted by ART (Prot. mirabilis [5]; 1 sample (r19)) | resistance profile predicted by ART (Prot. mirabilis [5]; 1 sample (r20)) | resistance profile predicted by ART (Prot. mirabilis [5]; 6 samples (r17)) | resistance profile predicted by ART (E. faecalis) | resistance profile predicted by ART (Str. agalactiae) | resistance profile predicted by ART (K. pneumoniae [6]; 1 sample (r12)) | resistance profile predicted by ART (K. pneumoniae [6]; 8 samples (r11)) | resistance profile predicted by ART (K. pneumoniae [6]; 11 samples (r10), MDR) | resistance profile predicted by ART (Staphylococcus sp.; 1 sample (r31)) | resistance profile predicted by ART (Staphylococcus sp.; 1 sample (r32)) | resistance profile predicted by ART (E. coli [7]; 3 samples (r8), MDR) | resistance profile predicted by ART (E. coli [7]; 12 samples (r7)) | resistance profile predicted by ART (E. coli [7]; [11]) | other results |
| --- | --- | --- | --- | --- | --- | --- | --- | --- | --- | --- | --- | --- | --- | --- | --- | --- | --- | --- | --- | --- | --- |
| CC1(C)S[C@@H]2[C@H](NC(=O)[C@H](N)c3ccccc3)C(=O)N2[C@H]1C(=O)O [Amp, Ampicillin] | R | R | R | R | S | R | R | R | R | R | S | S | R | R | R | R | S | R | S | R | CLP result differing from ART (in brackets) (Prot. mirabilis [1]): S; resistance found with modular kit (Proteus mirabilis; Proteus mirabilis (3 samples), profile r25, ESBL Pos): R; resistance found with modular kit (Proteus mirabilis; Proteus mirabilis, profile r26, ESBL Pos): R; resistance found with modular kit (Proteus mirabilis; Proteus mirabilis, profile r27, ESBL Neg): R; resistance found with modular kit (E. coli [2]; E. coli (16 samples), profile r6, ESBL Neg, 5-10 min at 38° C.): S; resistance found with modular kit (E. coli [2]; E. coli, profile r7): S; resistance found with modular kit (E. coli [2]; E. coli, profile r8): R; resistance found with modular kit (E. coli [2]; E. coli, profile r9, ESBL Neg): R; resistance found with modular kit (E. coli [2]; E. coli, profile r10, ESBL Neg): R; resistance found with modular kit (E. coli [2]; E. coli, profile r11, ESBL Neg): R; resistance found with modular kit (E. coli [2]; E. coli, profile r12, ESBL Neg): R; resistance found with modular kit (E. coli [2]; E. coli, profile r13): R; resistance found with modular kit (E. coli [2]; E. coli, profile r14, ESBL Pos): R; resistance found with modular kit (E. coli [2]; E. coli, profile r15, ESBL Pos): R; resistance found with modular kit (Citrobacter freundii; profile r23, ESBL Pos): R; resistance found with modular kit (K. pneumoniae [3]; K. pneumoniae (5 samples), profile r17, ESBL Pos): R; resistance found with modular kit (K. pneumoniae [3]; K. pneumoniae, profile r18, ESBL Pos): R; resistance found with modular kit (K. pneumoniae [3]; K. pneumoniae, profile r19): R; resistance found with modular kit (K. pneumoniae [3]; K. pneumoniae, profile r20, ESBL Pos): R; resistance found with modular kit (K. pneumoniae [3]; K. pneumoniae, profile r21, ESBL Neg): R |
| CO/N=C(\C(=O)N[C@@H]1C(=O)N2C(C(=O)O)=C(CSc3nc(=O)c(=O)[nH]n3C)CS[C@H]12)c1csc(N)n1 [Cro, Ceftriaxone] | S | R | S | S | S | S | S | R | S | S | S[nd] | S[nd] | S | S | R | S | S | R | S | S | CLP result differing from ART (in brackets) (K. oxytoca [8]): R; CLP result differing from ART (in brackets) (K. pneumoniae [9]): R |
| CO/N=C(\C(=O)N[C@@H]1C(=O)N2C(C(=O)O)=C(COC(N)=O)CS[C@H]12)c1ccco1 [Cxm, Cefuroxime] | S | R | R | S | S | S | R | R | R | S | S[nd] | S[nd] | R | S | R | S | S | R | S | S | – |
| C[C@@H](O)[C@H]1C(=O)N2C(C(=O)O)=C(S[C@@H]3CN[C@H](C(=O)Nc4cccc(C(=O)O)c4)C3)[C@H](C)[C@H]12 [Ert, ertapenem] | – | – | – | – | – | – | – | – | – | – | – | – | – | – | – | – | – | – | – | – | hydrolysis by carbapenemase in the sample (decolorization of strip) (carbapenemase): hydrolyzing |
| O=C(O)[C@H]1/C(=C/CO)O[C@@H]2CC(=O)N21 [RR, clavulanic acid] | – | – | – | – | – | – | – | – | – | – | – | – | – | – | – | – | – | – | – | – | Effect of clavulanic acid (Reduced Resistance) (E. coli [2]; E. coli, profile r12): N; Effect of clavulanic acid (Reduced Resistance) (Citrobacter freundii; profile r23): N; Effect of clavulanic acid (Reduced Resistance) (K. pneumoniae [3]; K. pneumoniae, profile r20): N; protection from hydrolysis [10]: no protection from hydrolysis |
